{"source": "paper PMC6273267", "about": "(Molecules, 2016)", "key": {"BuChE (E.C. 3.1.1.8)": {"molecular_target": "T1, BuChE (E.C. 3.1.1.8) (Equus caballus, UniProt P81908)", "T1 construct": "purchased Sigma-Aldrich (St. Louis, MO, USA); host or cells: equine serum", "T1 sequence (P81908 whole entry)": "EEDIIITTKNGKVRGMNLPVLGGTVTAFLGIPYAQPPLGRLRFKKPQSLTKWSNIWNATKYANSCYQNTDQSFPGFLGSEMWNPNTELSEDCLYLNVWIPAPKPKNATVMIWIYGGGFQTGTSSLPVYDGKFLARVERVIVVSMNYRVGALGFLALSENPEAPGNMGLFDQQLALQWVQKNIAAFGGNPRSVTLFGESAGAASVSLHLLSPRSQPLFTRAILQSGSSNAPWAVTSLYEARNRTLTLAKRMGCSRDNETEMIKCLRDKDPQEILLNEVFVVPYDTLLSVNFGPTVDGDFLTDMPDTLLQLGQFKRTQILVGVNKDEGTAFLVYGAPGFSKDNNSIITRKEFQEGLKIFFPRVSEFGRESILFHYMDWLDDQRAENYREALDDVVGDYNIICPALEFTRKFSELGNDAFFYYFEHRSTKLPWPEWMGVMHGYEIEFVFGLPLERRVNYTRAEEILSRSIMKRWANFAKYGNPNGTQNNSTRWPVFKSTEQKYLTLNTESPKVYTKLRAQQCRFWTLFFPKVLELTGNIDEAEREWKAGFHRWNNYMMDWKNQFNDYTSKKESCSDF", "test": "biochemical", "details": "means ± SEM of three experiments; pH 8.0, 37 °C, 15 min incubation; read-out: BuChE Inhibition (IC50)", "procedure": "(§1) The inhibitory activity of the synthesized graveoline analogs on cholinesterase in vitro was studied using the Ellman method.\n(§2) Stock solutions of all graveoline analogs (10 mM) were prepared using DMSO and stored at −80 °C. Further dilutions to working concentrations were made with double-distilled deionized water. AChE (E.C. 3.1.1.7, obtained from electric eel), BuChE (E.C. 3.1.1.8, obtained from equine serum), 5,5′-dithiobis-(2-nitrobenzoic acid) (Ellman’s reagent, DTNB), acetylthiocholine chloride (ATC), butylthiocholine chloride, thioflavin T, and tarcine hydrochloride were purchased from Sigma-Aldrich (St. Louis, MO, USA). Aβ42 was purchased from Millipore (Billerica, MA, USA). 3-(4,5-Dimethylthiazol-2-yl)-2,5-diphenyltetrazolium bromide (MTT) was purchased formal Aladdin (Shanghai, China). The SH-SY5Y cell line was obtained from the Animal experimental center of Sun Yat-sen University.\n(§3) The solutions of the enzyme were prepared to achieve 2.0 units/mL in 2 mL aliquots. The experiment system contained phosphate buffer, pH 8.0 (1 mL), 50 μL of 0.01 M substrate (ATC), 50 μL of 0.01 M DTNB, and 10 μL of enzyme. The substrate was added into the experiment system containing the DTNB, buffer, and enzyme with inhibitors after 15 min of incubation. […] Calculations were conducted according to the assay of Ellman et al.. The in vitro BuChE assay was performed using the method described above."}, "AChE (E.C. 3.1.1.7) [1]": {"molecular_target": "T2, AChE (E.C. 3.1.1.7) (Electrophorus electricus, UniProt O42275)", "T2 construct": "purchased Sigma-Aldrich (St. Louis, MO, USA)", "T2 sequence (O42275 24-633)": "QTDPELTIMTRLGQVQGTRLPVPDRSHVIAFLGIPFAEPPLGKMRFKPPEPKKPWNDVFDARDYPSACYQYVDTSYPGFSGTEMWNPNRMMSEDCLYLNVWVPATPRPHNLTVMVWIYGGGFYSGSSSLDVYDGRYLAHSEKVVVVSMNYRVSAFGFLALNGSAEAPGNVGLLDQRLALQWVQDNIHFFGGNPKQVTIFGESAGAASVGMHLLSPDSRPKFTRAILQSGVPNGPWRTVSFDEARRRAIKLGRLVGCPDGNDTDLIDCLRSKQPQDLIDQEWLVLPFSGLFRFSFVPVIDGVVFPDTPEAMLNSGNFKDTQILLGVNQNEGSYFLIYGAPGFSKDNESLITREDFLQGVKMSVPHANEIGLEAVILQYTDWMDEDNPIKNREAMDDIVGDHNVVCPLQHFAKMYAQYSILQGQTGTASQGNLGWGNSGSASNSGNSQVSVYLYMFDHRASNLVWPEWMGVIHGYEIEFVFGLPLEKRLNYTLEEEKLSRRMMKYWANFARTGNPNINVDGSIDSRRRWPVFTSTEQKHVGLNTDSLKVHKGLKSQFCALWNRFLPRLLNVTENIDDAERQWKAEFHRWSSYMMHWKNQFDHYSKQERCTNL", "test": "biochemical", "details": "for Selectivity Index: Selectivity Index = IC50 (BuChE)/IC50 (AChE); for IC50: means ± SEM of three experiments, pH 8.0, 37 °C, 15 min incubation, read-out: AChE Inhibition (IC50)", "procedure": "as §1, §2, §3"}, "AChE (E.C. 3.1.1.7) [2]": {"molecular_target": "T2, AChE (E.C. 3.1.1.7)", "test": "biochemical", "details": "stated in the introduction, early efforts"}, "[3]": {"test_system": "AChE-induced Aβ42 aggregation", "test": "Thioflavin T-based fluorometric assay of AChE-induced Aβ42 aggregation", "format": "biochemical", "details": "5, 10, 20, 40 and 80 μM; 48 h at 37 °C; effect related to compound concentration", "procedure": "To explore the combining effect of graveoline analogs on the AChE functional site PAS, compound 5c was chosen to study the inhibitory activity of AChE-induced Aβ aggregation using thioflavin T-based fluorometric assay. […] The inhibitory effect of 5c was related to the compound concentration. […]\nFigure 4 Determination of 5c inhibition potency on AChE-induced amyloid-β (Aβ)42 aggregation.\nThe self-mediated Aβ42 aggregation was evaluated through the thioflavin-T fluorescence assay. A mixture of 230 μM Aβ42 peptide, 2.30 μM AChE (Aβ42/AChE molar ratio 100:1), and the indicated concentrations of compound 5c (5, 10, 20 ,40 and 80 μM) were added to the phosphate buffer (pH 7.40, 0.01 M). After co-incubated in 37 °C for 48 h, thioflavin-T (5 μM in 50 mM glycine-NaOH buffer, pH 8.00) was added. Fluorescence was monitored with excitation at 450 nm (λex) and 485 nm (λem) by the Spectrofluorimeter LS55. The fluorescence intensity values reached at the plateau (around 300 s) were recorded after subtracting the background fluorescence. The solutions containing Aβ42, and Aβ42 plus HuAChE was checked as control. Each experiment was run in triplicate."}, "AChE": {"molecular_target": "T3, AChE (Electrophorus electricus, UniProt O42275)", "T3 construct": "purchased Sigma-Aldrich (St. Louis, MO, USA)", "T3 sequence (O42275 24-633)": "as above", "test": "Kinetic characterization of AChE inhibition (Lineweaver-Burk plot)", "format": "biochemical, electric eel", "details": "lines intersect in the second quadrant", "procedure": "When the small-molecule ligand was combined with the AChE active center (CAS), the type of inhibition of the enzyme was classified as competitive inhibition; by contrast, when the small-molecule ligand was acted on the PAS, the enzymatic inhibition was classified as non-competitive inhibition. […] This conclusion was verified by subsequent molecular docking experiments.\nFigure 2 Lineweaver-Burk plot for the inhibition of AChE by 5c.\nThe kinetic characterization of AChE was performed using the reported method. Three concentrations ([…]) of the substrate were mixed in 1 mL 0.1 M KH2PO4/K2HPO4 buffer (pH 8.0) containing 10 μL AChE, 50 μL DTNB, and 50 μL substrate. The test compound was added into the assay solution and was pre-incubated with the AChE at 37 °C for 15 min followed by addition of the substrate. The kinetic characterization of the AChE-catalyzed ATC hydrolysis was performed spectrometrically at 412 nm. A parallel control with no inhibitor in the mixture allowed adjusting activities to be measured at various times."}, "SH-SY5Y cells": {"test_system": "SH-SY5Y cells", "test": "Neurocyte toxicity test in vitro (MTT method)", "format": "cell-based", "details": "40 μM, 48 h", "procedure": "Thus, we used the methyl thiazolyl tetrazolium (MTT) method to perform a neurocyte (SH-SY5Y) toxicity test in vitro. […] However, cell viability was greatly influenced at 20 and 40 μM concentrations and the inhibition rates were more than 90%. […] However, compared with the cholinesterase activity at the nanomole level, this level of cytotoxicity is acceptable. […]\nFigure 5 Inhibition for SH-SY5Y of compounds 4a–4c, 5a–5c, 6a–6b and curcumin at different concentrations.\nThe SH-SY5Y cell line was seeded on 96-well plates at a density of 1.0 × 10^4 cells/well. After overnight incubation, the cells were treated with various concentrations (0.1, 1, 20, and 40 μM) of graveoline derivatives for 48 h. Subsequently, 10 μL of 5 mg/mL MTT solution was added to each well and further incubated for 4 h at 37 °C. The solution was carefully removed, and each well was treated with dimethyl sulfoxide (DMSO) (200 μL for each well). The optical density of the wells was then read on the microplate reader at 490 nm. The parallel tests of all drug doses were performed in triplicate."}}, "note": "Read-outs that look alike come from different tables or passages of the source.", "data": [{"smiles": "Cc1ccc(-c2cc(=O)c3ccccc3n2C)cc1", "note": "[Compound 2, 1-Methyl-2-p-tolylquinolin-4(1H)-one]", "values": [{"measurement": "IC50", "setting": "BuChE (E.C. 3.1.1.8)", "result": "9306 ± 76", "unit": "nM"}, {"measurement": "Selectivity Index", "setting": "AChE (E.C. 3.1.1.7) [1]", "result": 3}, {"measurement": "IC50", "setting": "AChE (E.C. 3.1.1.7) [1]", "result": "3650 ± 38", "unit": "nM"}, {"measurement": "IC50", "setting": "AChE (E.C. 3.1.1.7) [2]", "result": 3650, "unit": "nM"}]}, {"smiles": "CN(C)CCCCNCc1ccc(-c2cc(=O)c3ccccc3n2C)cc1", "note": "[Compound 6a, 2-(4-((4-(Dimethylamino)butylamino)methyl)phenyl)-1-methylquinolin-4(1H)-one]", "values": [{"measurement": "IC50", "setting": "BuChE (E.C. 3.1.1.8)", "result": "3670 ± 39", "unit": "nM"}, {"measurement": "Selectivity Index", "setting": "AChE (E.C. 3.1.1.7) [1]", "result": 103}, {"measurement": "IC50", "setting": "AChE (E.C. 3.1.1.7) [1]", "result": "35.5 ± 0.96", "unit": "nM"}]}, {"smiles": "Cn1c(-c2ccc(CNCCCCN3CCCC3)cc2)cc(=O)c2ccccc21", "note": "[Compound 6b, 1-Methyl-2-(4-((4-(pyrrolidin-1-yl)butylamino)methyl)phenyl)quinolin-4(1H)-one]", "values": [{"measurement": "IC50", "setting": "BuChE (E.C. 3.1.1.8)", "result": "2430 ± 49", "unit": "nM"}, {"measurement": "Selectivity Index", "setting": "AChE (E.C. 3.1.1.7) [1]", "result": 193}, {"measurement": "IC50", "setting": "AChE (E.C. 3.1.1.7) [1]", "result": "12.6 ± 0.57", "unit": "nM"}]}, {"smiles": "Cn1c(-c2ccc(CNCCN3CCCC3)cc2)cc(=O)c2ccccc21", "note": "[Compound 4b, 1-Methyl-2-(4-((2-(pyrrolidin-1-yl)ethylamino)methyl)phenyl)quinolin-4(1H)-one]", "values": [{"measurement": "IC50", "setting": "BuChE (E.C. 3.1.1.8)", "result": "2470 ± 85", "unit": "nM"}, {"measurement": "IC50", "setting": "AChE (E.C. 3.1.1.7) [1]", "result": "10.2 ± 1.33", "unit": "nM"}]}, {"smiles": "Cn1c(-c2ccc(CNCCCN3CCCCC3)cc2)cc(=O)c2ccccc21", "note": "[Compound 5c, 1-Methyl-2-(4-((3-(piperidin-1-yl)propylamino)methyl)phenyl)quinolin-4(1H)-one]", "values": [{"measurement": "inhibition of AChE-induced Aβ42 aggregation", "setting": "[3]", "result": "significantly inhibit"}, {"measurement": "type of inhibition of AChE", "setting": "AChE", "result": "mixed inhibition"}, {"measurement": "IC50", "setting": "BuChE (E.C. 3.1.1.8)", "result": "1150 ± 31", "unit": "nM"}, {"measurement": "Selectivity Index", "setting": "AChE (E.C. 3.1.1.7) [1]", "result": 486}, {"measurement": "IC50", "setting": "AChE (E.C. 3.1.1.7) [1]", "result": "2.36 ± 0.24", "unit": "nM"}]}, {"smiles": "Cn1c(-c2ccc(CNCCCN3CCCC3)cc2)cc(=O)c2ccccc21", "note": "[Compound 5b, 1-Methyl-2-(4-((3-(pyrrolidin-1-yl)propylamino)methyl)phenyl)quinolin-4(1H)-one]", "values": [{"measurement": "IC50", "setting": "BuChE (E.C. 3.1.1.8)", "result": "1890 ± 54", "unit": "nM"}, {"measurement": "Selectivity Index", "setting": "AChE (E.C. 3.1.1.7) [1]", "result": 291}, {"measurement": "IC50", "setting": "AChE (E.C. 3.1.1.7) [1]", "result": "6.47 ± 0.15", "unit": "nM"}]}, {"smiles": "COc1cc(/C=C/C(=O)CC(=O)/C=C/c2ccc(O)c(OC)c2)ccc1O", "note": "[curcumin]", "values": [{"measurement": "neurocyte inhibition rate", "setting": "SH-SY5Y cells", "result": 57.3, "unit": "%"}]}, {"smiles": "Cn1c(-c2ccc(CNCCN3CCCCC3)cc2)cc(=O)c2ccccc21", "note": "[Compound 4c, 1-Methyl-2-(4-((2-(piperidin-1-yl)ethylamino)methyl)phenyl)quinolin-4(1H)-one]", "values": [{"measurement": "IC50", "setting": "BuChE (E.C. 3.1.1.8)", "result": "1540 ± 29", "unit": "nM"}, {"measurement": "Selectivity Index", "setting": "AChE (E.C. 3.1.1.7) [1]", "result": 160}, {"measurement": "IC50", "setting": "AChE (E.C. 3.1.1.7) [1]", "result": "9.63 ± 0.76", "unit": "nM"}]}, {"smiles": "CN(C)CCCNCc1ccc(-c2cc(=O)c3ccccc3n2C)cc1", "note": "[Compound 5a, 2-(4-((3-(Dimethylamino)propylamino)methyl)phenyl)-1-methylquinolin-4(1H)-one]", "values": [{"measurement": "IC50", "setting": "BuChE (E.C. 3.1.1.8)", "result": "2680 ± 32", "unit": "nM"}, {"measurement": "Selectivity Index", "setting": "AChE (E.C. 3.1.1.7) [1]", "result": 80}, {"measurement": "IC50", "setting": "AChE (E.C. 3.1.1.7) [1]", "result": "33.4 ± 0.78", "unit": "nM"}]}, {"smiles": "CN(C)CCNCc1ccc(-c2cc(=O)c3ccccc3n2C)cc1", "note": "[Compound 4a, 2-(4-((2-(Dimethylamino)ethylamino)methyl)phenyl)-1-methylquinolin-4(1H)-one]", "values": [{"measurement": "IC50", "setting": "BuChE (E.C. 3.1.1.8)", "result": "3520 ± 46", "unit": "nM"}, {"measurement": "Selectivity Index", "setting": "AChE (E.C. 3.1.1.7) [1]", "result": 45}, {"measurement": "IC50", "setting": "AChE (E.C. 3.1.1.7) [1]", "result": "78.5 ± 1.76", "unit": "nM"}]}]}
